The values below are quoted from earlier work in publication PMC10945501, “Development and In Vivo Evaluation of Small-Molecule Ligands for Positron Emission Tomography of Immune Checkpoint Modulation Targeting Programmed Cell Death 1 Ligand 1” (Journal of Medicinal Chemistry, 2024).

The subject of data set [1] is PD-L1^+ / PD-L1^– H358 tumors (lung adenocarcinoma). Also on record: method as in PMID 37450644. As to conditions: ex vivo autoradiography; cited from earlier work.
Data set [2] deals with PD-L1^± ES2 tumors (ovarian carcinoma). Also on record: method as in PMID 37450644. As to conditions: ex vivo autoradiography; cited from earlier work.

On to `N#Cc1c(-c2ccc([18F])cc2)csc1OCc1ccc(CN)cc1` [2-((4-(aminomethyl)benzyl)oxy)-4-(4-[^18F]fluorophenyl)thiophene-3-carbonitrile], for which the “fold higher uptake in PD-L1^+ compared to PD-L1^– tumors” value in data set [1] is on record as 1.4 fold. Also, in data set [2], the “difference in uptake PD-L1^+ vs PD-L1^– tumors” value is on record as “not observed”.
